Data from US5091539A, “Azolyl cycloalkanol derivatives and agricultural fungicides” (Shionogi & Co., Ltd., priority 1984, dated 1992).
Values after ≈ are worked out from the molar mass of the structure shown.

How the values were obtained:
Botrytis cinerea = test: Control test of Botrytis rot (gray mold) of cucumber; type: in vivo
Sclerotinia sclerotiorum = test: Control test to Sclerotinia rot of cucumber; type: in vivo
Source text: (1) This test was practised in the same manner as in the above test, control test of Botrytis rot (gray mold) of cucumber, except for using the mycelium of Sclerotinia sclerotiorum as inoculm. The same as in test 2.

Sphaerotheca fuliginea [1] = test: Control test to powdery mildew of cucumber (foliar and soil treatment); type: in vivo; conditions: index 0-10
Puccinia coronata = test: Control test of crown rust of oat; type: in vivo
Protocol: (1) Young oats (Cultivar: Pc38) grown in pots in a greenhouse were (i) sprayed with 10 ml each of solution of the test compounds at a prescribed concentration and after air-drying, they were inoculated with 15 mg of uredospores of Puccinia coronata per 20 pots (protective spraying) or (ii) sprayed with the test solution 3 days after inoculation of uredospores. After each plant was kept at 20°-25° C. in a greenhouse for 2 weeks, number of uredia was counted on the first leaf.

Sphaerotheca fuliginea [2] = test: Control test to powdery mildew of cucumber by vapor (filter paper disks); type: in vivo
Protocol: (1) The first leaves of young cucumber (Cultivar: Matsukaze) planted in pot of 9 cm in diameter were inoculated with spore suspension of Sphaerotheca fuliginea. After the plants were kept in a greenhouse for 2 days, thin cover plates, 15 mm in diameter, were put on the first leaves. Filter paper disks soaked with 80 μl of test solution at a concentration of 31.3, 7.8, 2.0 or 0.5 ppm were put on the plates for 3 days. Disease degrees were observed 14 days after the inoculation.
It is evaluated as + when an inhibition zone was observed around the plate, as ± when the inhibition zone has nearly the same diameter (8 mm) as that of plate or as - when there is no inhibition zone.
(§1) (1) Test methods and evaluation are the same as those in Tests 2, 4 and 6.

Alternaria kikuchiana = test: Anti-fungal activity in vitro; type: cell-based; conditions: 48 h, GY medium, 28° C., 2 days, spore suspension
Protocol: (§2) (1) Each test compound was diluted by two-fold dilution with GY medium (2% glucose and 0.4% yeast extract) containing 0.01% Tween 80 (trademark). Every diluted solution was inoculated with spore suspension (10^5-5 spores/ml) of Alternaria kikuchiana or a hyphae disk with agar (4 mm in diameter) of other fungi and incubated at 28° C. for 2 days.

Cladosporium herbarum = test: Anti-fungal activity in vitro; type: cell-based; conditions: 48 h, GY medium, 28° C., 2 days
Protocol: as §2

Cochiobolus sativus = test: Anti-fungal activity in vitro; type: cell-based; conditions: 48 h; GY medium, 28° C., 2 days
Protocol: as §2

Corticium rolfsii = test: Anti-fungal activity in vitro; type: cell-based; conditions: Agroathelia rolfsii, 48 h; GY medium, 28° C., 2 days
Protocol: as §2

Diaporthe citri = test: Anti-fungal activity in vitro; type: cell-based; conditions: 48 h, GY medium, 28° C., 2 days
Protocol: as §2

Monilinia fructicola = test: Anti-fungal activity in vitro; type: cell-based; conditions: 48 h, GY medium, 28° C., 2 days
Protocol: as §2

Pyrenophora graminea = test: Anti-fungal activity in vitro; type: cell-based; conditions: 48 h, GY medium, 28° C., 2 days
Protocol: as §2

Ustilago nuda = test: Anti-fungal activity in vitro; type: cell-based; conditions: 48 h, GY medium, 28° C., 2 days
Protocol: as §2

[3] = system: powdery mildew of cucumber and Borytis rot (gray mold) of cucumber; test: Comparative test of cis- and trans-isomers; type: in vivo; conditions: cis isomer vs trans isomer, about
Source text: Each cis- and trans-isomers of 1-(4-chlorophenyl)-2-(1,2,4-triazol-1-yl)cyclohexanol (Compound 22 and the trans-isomer)) and 1-(4-fluorophenyl)-2-(1,2,4-triazol-1-yl)cyclohexanol (Compound 28 and the trans-isomer) are subjected to control test to powdery mildew of cucumber and to Borytis rot (gray mold) of cucumber.
as §1

MIC (Alternaria kikuchiana): 50 µg/mL (≈ 180 µM)
MIC (Cladosporium herbarum): 6.25 µg/mL (≈ 22.5 µM)
MIC (Cochiobolus sativus): 6.25 µg/mL (≈ 22.5 µM)
MIC (Corticium rolfsii): > 50 µg/mL
MIC (Diaporthe citri): 12.5 µg/mL (≈ 45 µM)
MIC (Monilinia fructicola): 0.78 µg/mL (≈ 2.81 µM)
MIC (Pyrenophora graminea): 12.5 µg/mL (≈ 45 µM)
MIC (Ustilago nuda): 12.5 µg/mL (≈ 45 µM)
Structure (SMILES): O[C@@]1(c2ccc(Cl)cc2)CCCC[C@H]1n1cncn1 (relative stereo) [Compound 22, cis-1-(4-chlorophenyl)-2-(1,2,4-triazol-1-yl)cyclohexanol]
Percent Disease Control, Curative Spraying (Botrytis cinerea; Table 2, 31.3 ppm): 46%
Percent Disease Control, Protective Spraying (Botrytis cinerea; Table 2, 31.3 ppm): 100%
Percent Disease Control, Curative Spraying (Botrytis cinerea; Table 2, 125 ppm): 89%
Percent Disease Control, Protective Spraying (Botrytis cinerea; Table 2, 125 ppm): 100%
Gray Mold, Percent Disease Control, Curative Spraying (Botrytis cinerea; Table 9, 7.8 ppm): 20%
Gray Mold, Percent Disease Control, Protective Spraying (Botrytis cinerea; Table 9, 7.8 ppm): 35%
Gray Mold, Percent Disease Control, Curative Spraying (Botrytis cinerea; Table 9, 31.3 ppm): 88%
Gray Mold, Percent Disease Control, Protective Spraying (Botrytis cinerea; Table 9, 31.3 ppm): 62%
Gray Mold, Percent Disease Control, Curative Spraying (Botrytis cinerea; Table 9, 125 ppm): 82%
Gray Mold, Percent Disease Control, Protective Spraying (Botrytis cinerea; Table 9, 125 ppm): 78%
Percent Disease Control, Curative Spraying (Sclerotinia sclerotiorum; 31.3 ppm): 93%
Percent Disease Control, Protective Spraying (Sclerotinia sclerotiorum; 31.3 ppm): 67%
Percent Disease Control, Curative Spraying (Sclerotinia sclerotiorum; 125 ppm): 95%
Percent Disease Control, Protective Spraying (Sclerotinia sclerotiorum; 125 ppm): 100%
Powdery mildew, Foliar Treatment, Curative Effect (Sphaerotheca fuliginea [1]; Table 9, 0.03 ppm): 9
Powdery mildew, Foliar Treatment, Protective Effect (Sphaerotheca fuliginea [1]; Table 9, 0.03 ppm): 0
Powdery mildew, Foliar Treatment, Curative Effect (Sphaerotheca fuliginea [1]; Table 9, 0.12 ppm): 10
Powdery mildew, Foliar Treatment, Protective Effect (Sphaerotheca fuliginea [1]; Table 9, 0.12 ppm): 9
Powdery mildew, Foliar Treatment, Curative Effect (Sphaerotheca fuliginea [1]; Table 9, 0.5 ppm): 10
Powdery mildew, Foliar Treatment, Protective Effect (Sphaerotheca fuliginea [1]; Table 9, 0.5 ppm): 10
Powdery mildew, Soil Treatment, Protective Effect (Sphaerotheca fuliginea [1]; Table 9, 0.5 ppm): 0
Powdery mildew, Foliar Treatment, Curative Effect (Sphaerotheca fuliginea [1]; Table 9, 2.0 ppm): 10
Powdery mildew, Foliar Treatment, Protective Effect (Sphaerotheca fuliginea [1]; Table 9, 2.0 ppm): 10
Powdery mildew, Soil Treatment, Protective Effect (Sphaerotheca fuliginea [1]; Table 9, 2.0 ppm): 10
Powdery mildew, Soil Treatment, Protective Effect (Sphaerotheca fuliginea [1]; Table 9, 7.8 ppm): 10
Powdery mildew, Soil Treatment, Protective Effect (Sphaerotheca fuliginea [1]; Table 9, 31.3 ppm): 10
Foliar Treatment, Curative Effect (Sphaerotheca fuliginea [1]; second Table 4, 0.5 ppm): 10
Foliar Treatment, Protective Effect (Sphaerotheca fuliginea [1]; second Table 4, 0.5 ppm): 5 (Disease sign is observed on the leaf in about 30%.)
Soil Treatment, Protective Effect (Sphaerotheca fuliginea [1]; second Table 4, 0.5 ppm): 0
Foliar Treatment, Curative Effect (Sphaerotheca fuliginea [1]; second Table 4, 2.0 ppm): 10
Foliar Treatment, Protective Effect (Sphaerotheca fuliginea [1]; second Table 4, 2.0 ppm): 10
Soil Treatment, Protective Effect (Sphaerotheca fuliginea [1]; second Table 4, 2.0 ppm): 5 (Disease sign is observed on the leaf in about 30%.)
Foliar Treatment, Curative Effect (Sphaerotheca fuliginea [1]; second Table 4, 7.8 ppm): 10
Foliar Treatment, Protective Effect (Sphaerotheca fuliginea [1]; second Table 4, 7.8 ppm): 10
Soil Treatment, Protective Effect (Sphaerotheca fuliginea [1]; second Table 4, 7.8 ppm): 10
Foliar Treatment, Curative Effect (Sphaerotheca fuliginea [1]; second Table 4, 31.3 ppm): 10
Foliar Treatment, Protective Effect (Sphaerotheca fuliginea [1]; second Table 4, 31.3 ppm): 10
Soil Treatment, Protective Effect (Sphaerotheca fuliginea [1]; second Table 4, 31.3 ppm): 10
Percent Disease Control, Curative Spraying (Puccinia coronata; 12.5 ppm): 64%
Percent Disease Control, Protective Spraying (Puccinia coronata; 12.5 ppm): 100%
Percent Disease Control, Curative Spraying (Puccinia coronata; 25 ppm): 88%
Percent Disease Control, Protective Spraying (Puccinia coronata; 25 ppm): 100%
Percent Disease Control, Curative Spraying (Puccinia coronata; 50 ppm): 100%
Percent Disease Control, Protective Spraying (Puccinia coronata; 50 ppm): 100%
Protective Effect by Vapor (Sphaerotheca fuliginea [2]; Table 6, 0.5 ppm): -
Protective Effect by Vapor (Sphaerotheca fuliginea [2]; Table 6, 2.0 ppm): -
Protective Effect by Vapor (Sphaerotheca fuliginea [2]; Table 6, 7.8 ppm): +
Protective Effect by Vapor (Sphaerotheca fuliginea [2]; Table 6, 31.3 ppm): +
Powdery mildew, Vapor Effect (Sphaerotheca fuliginea [2]; Table 9, 2.0 ppm): -
Powdery mildew, Vapor Effect (Sphaerotheca fuliginea [2]; Table 9, 7.8 ppm): ±
Powdery mildew, Vapor Effect (Sphaerotheca fuliginea [2]; Table 9, 31.3 ppm): +
times more effective than the corresponding trans isomer [3]: 4-16 times
